# Laboratory results published in US10544154B2, “Opioid receptor antagonist prodrugs” (Nirsum Laboratories, Inc., priority 2017, dated 2020).
# Entries after “also recorded” stand apart in the source; their conditions may differ.
# Assay: Clinical observations for dogs in pharmacokinetic studies
# Type: in vivo, Beagle dogs
# Conditions: for Clinical observation, R-TA / BT: 48 mg/kg
# Procedure: Weight monitoring was done every week.
# The dose formulation (concentration—400 mg base equivalents/ml in sesame oil+1% benzyl alcohol, unless otherwise specified) was administered via deep intramuscularly (unless otherwise specified). The injection vehicle was also dosed via deep intramuscular route (unless otherwise specified) on contralateral site of each animal at study initiation. The animals were sedated with Propofol at 6 mg/kg via IV administration. Following sedation hair was carefully removed from around the injection site and the area gently cleaned. Care will be taken to avoid irritating skin during shaving and cleaning the injection site. Then dogs will be dosed with deep IM administration. At least 2.5 cm depth from the surface into the central aspect of the quadriceps or biceps femoris muscle, by angling the needle toward the femur. If the needle hits the femur, simply draws back slightly and then inject. The dose volume will be determined by the animals' body weight collected on the morning of dosing day. For repeated administration, the injection sites may be rotated to minimize tissue injury.
# [1] = dog D1502 (third dog, c6), 96 hr
# [2] = dog D1502 (third dog, c6), 120 hr
# [3] = dog D1502 (third dog, c6), 144 hr
# [4] = dog D1502 (third dog, c6), 192 hr
# [5] = dog D1502 (third dog, c6), 216 hr
smiles,measurement,setting,value
"C=C1CC[C@@]2(O)C3Cc4ccc(OCOC(=O)CCCCCCCCCCCCC)c5c4[C@@]2(CCN3CC2CC2)[C@H]1O5 [Compound 45, (((4aS,7aS,12bS)-3-(cyclopropylmethyl)-4a-hydroxy-7-methylene-2,3,4,4a,5,6,7,7a-octahydro-1H-4,12-methanobenzofuro[3,2-e]isoquinolin-9-yl)oxy)methyl tetradecanoate]",Clinical observations (cell spans L-vehicle and R-TA),"dog D1503, 96 mg/kg, Day 1",Liquid feces about 20 mL
"C=C1CC[C@@]2(O)C3Cc4ccc(OCOC(=O)OCCCCCCCCCC)c5c4[C@@]2(CCN3CC2CC2)[C@H]1O5 [Compound 35, (((4aS,7aS,12bS)-3-(cyclopropylmethyl)-4a-hydroxy-7-methylene-2,3,4,4a,5,6,7,7a-octahydro-1H-4,12-methanobenzofuro[3,2-e]isoquinolin-9-yl)oxy)methyl decyl carbonate]","Clinical observation, R-TA","dog D1501, 24 hr",Red spots at groin
same,"Clinical observation, R-TA","dog D1501, 48 hr",Red spots at groin
same,BT,"dog D1501, 72 hr",at groin/BT: 39.1 °C
same,"Clinical observation, R-TA","dog D1501, 72 hr",Swelling; also recorded: Red spots
same,BT,"dog D1501, 96 hr",at groin/BT: 39.0 °C
same,"Clinical observation, R-TA","dog D1501, 96 hr",Swelling; also recorded: Red spots
same,BT,"dog D1501, 120 hr",at groin/BT: 39.1 °C
same,"Clinical observation, R-TA","dog D1501, 120 hr",Swelling; also recorded: Red spots
same,BT,"dog D1501, 144 hr",groin/BT: 38.7 °C
same,BT,"dog D1501, 192 hr",groin/BT: 38.2 °C
same,BT,"dog D1501, 216 hr",groin/BT: 38.6 °C
same,"Clinical observation, R-TA","dog D1501, 216 hr",redness/Red spots at
same,BT,"dog D1501, 240 hr",groin/BT: 38.2 °C
same,"Clinical observation, R-TA","dog D1501, 240 hr",induration
same,BT,"dog D1501, 264 hr",groin/BT: 38.0 °C
same,"Clinical observation, R-TA","dog D1501, 264 hr",induration
same,BT,"dog D1501, 288 hr",groin/BT: 38.4 °C
same,"Clinical observation, R-TA","dog D1501, 288 hr",induration
same,BT,"dog D1501, […]",groin/BT: 38.9 °C
same,"Clinical observation, R-TA","dog D1501, day 13",induration
same,"Clinical observation, R-TA","dog D1501, day 14",induration
same,"Clinical observation, R-TA","dog D1501, day 15",induration
same,"Clinical observation, R-TA","dog D1501, day 16",induration
same,"Clinical observation, R-TA","dog D1501, day 17",induration
same,"Clinical observation, R-TA","dog D1501, day 18",induration
same,"Clinical observation, R-TA","dog D1502 (third dog, c6), 24 hr",Slight swelling/red
same,"Clinical observation, R-TA","dog D1502 (third dog, c6), 48 hr",Slight swelling/red
same,BT,"dog D1502 (third dog, c6), 72 hr",leg/BT: 39.3 °C
same,BT,[1],leg/BT: 39.3 °C
same,"Clinical observation, R-TA",[1],induration and red
same,BT,[2],BT: 39.4 °C
same,"Clinical observation, R-TA",[2],induration and red
same,BT,[3],BT: 39.0 °C
same,"Clinical observation, R-TA",[3],induration and red
same,BT,[4],at calf/BT: 39.2 °C
same,"Clinical observation, R-TA",[4],Obvious swelling
same,BT,[5],calf/BT: 39.2 °C
same,"Clinical observation, R-TA",[5],red spot
same,BT,"dog D1502 (third dog, c6), 240 hr",calf/BT: 38.9 °C
same,BT,"dog D1502 (third dog, c6), 264 hr",38.7 °C
same,BT,"dog D1502 (third dog, c6), 288 hr",38.7 °C
same,BT,"dog D1502 (third dog, c6), […]",at calf/BT: 39.3 °C
same,"Clinical observation, R-TA","dog D1502 (third dog, c6), day 20",Not obvious
same,BT,"dog D1502, 72 hr",39.6 °C
same,"Clinical observation, R-TA","dog D1502, 72 hr",red
same,BT,"dog D1502, 96 hr",38.9 °C
same,BT,"dog D1502, 120 hr",39.6 °C
same,BT,"dog D1502, 144 hr",38.9 °C
same,"Clinical observation, R-TA","dog D1502, 144 hr",redness
same,BT,"dog D1502, 192 hr",BT: 38.7 °C
same,BT,"dog D1502, 216 hr",BT: 39.2 °C
same,BT,"dog D1502, 240 hr",BT: 38.6 °C
same,BT,"dog D1502, 264 hr",BT: 38.4 °C
same,BT,"dog D1502, 288 hr",BT: 38.6 °C
same,BT,"dog D1502, […]",39.9 °C
